Legend:
[1] = test system: HeLa; test: MTT in vitro cytotoxicity assay, HeLa; format: cell-based; conditions: Homo sapiens, 48 h
Description: (§1) Roswell Park Memorial Institute Medium (RPMI-1640) was used to culture BEL-7402 and SGC-7901 cell lines; and A549, HeLa and LO2 cells were cultured in Dulbecco’s Modified Eagle’s Medium (DMEM) containing 10% fetal bovine serum (FBS). Cell passage experiments were performed with trypsin every 2 days to maintain exponential growth. All cells were cultured until they reached logarithmic growth phase, unless specifically noted.
(§2) The cytotoxicity test was carried out according to a method described in the literature. The cells were seeded into 96-well micro-assay culture plates and grown overnight in a 5% CO2 incubator at 37 °C. Then, the cells were treated with gradient concentrations of the compounds when the cells grew to 60–70%. At 48 h posttreatment, the medium was removed and MTT solution was added. After 4 h, the absorbance at 490 nm was measured with a microplate reader. The IC50 values were calculated by SPSS (Statistical Product and Service Solutions) software.

[2] = test system: A549; test: MTT in vitro cytotoxicity assay, A549; format: cell-based; conditions: Homo sapiens, 48 h
Description: as §1, §2

[3] = test system: SGC-7901; test: MTT in vitro cytotoxicity assay, SGC-7901; format: cell-based; conditions: Homo sapiens, 48 h
Description: as §1, §2

[4] = test system: BEL-7402; test: MTT in vitro cytotoxicity assay, BEL-7402; format: cell-based; conditions: Homo sapiens, 48 h
Description: as §1, §2

[5] = test system: LO2; test: MTT in vitro cytotoxicity assay, normal cell line LO2; format: cell-based; conditions: Homo sapiens, L02, 48 h
Description: as §1, §2

[6] = test system: SGC-7901 cells; test: Cellular uptake (DAPI, fluorescence microscope); format: cell-based, human; conditions: SGC-7901, IC50 concentrations, 24 h
Description: Cellular uptake studies were performed according to a method described in the literature. SGC-7901 cells were placed in 24-well microassay culture plates and grown overnight at 37 in a 5% CO2 incubator. The compounds tested were then added to the wells. […] Upon completion of incubation, the wells were washed three times with phosphate buffered saline (PBS). After moving the culture medium, the cells were stained with 2-(4-amidinophenyl)-6-indolecarbamidine dihydrochloride (DAPI) and observed under fluorescence microscope.

[7] = Partition coefficient by shake flask method; format: physicochemical; conditions: octanol / phosphate buffer (0.129 M NaCl, pH = 7.4)
Description: Partition coefficients of compounds in octanol and phosphate buffer (0.129 M NaCl, pH = 7.4) were measured as described by Owellen and coworkers. The concentrations of the compounds in the octanol and phosphate buffer phases were determined three times using a UV/Vis spectrophotometer. The partition coefficients were calculated from the ratio Coct/CPBS, where Coct and CPBS were the concentrations of the compound in the octanol and phosphate buffer, respectively.

[8] = test system: SGC-7901 cells; test: Intracellular GSH assay; format: cell-based, human; conditions: SGC-7901, IC50 concentrations, 24 h
Description: (§3) After incubation with IC50 concentrations of 3b and 3c for 24 h, SGC-7901cells were lysed. The lysate was centrifuged for 15 min to collect the supernatant. The protein concentration was determined using a BCA Protein Assay Kit (Beyotime, Shanghai, China). A lipid peroxidation MDA assay kit (Beyotime, Shanghai, China) was used to detect MDA content, and a GSH and GSSG Assay Kit was used to detect intracellular GSH. SGC-7901 cells were incubated with IC50 concentrations of 3b and 3c for 24 h. Afterwards, the cells were lysed by the freeze-thaw method, and the lysate was centrifuged for 5 min to collect the supernatant. The absorbance was measured at 412 nm with a microplate reader.

[9] = Stability in PBS by UV-Vis spectra; format: physicochemical
Excerpt: The stability of 3b and 3c in PBS was studied by UV-Vis spectra.

[10] = test system: SGC-7901 cells; test: Intracellular Ca2+ levels (Fluo-3AM); format: cell-based, human; conditions: SGC-7901, IC50 concentrations, 24 h, versus control
Description: Fluo-3AM, a Ca^2+-sensitive fluorescent probe, was used to detect the level of intracellular Ca^2+. SGC-7901 cells were incubated with IC50 concentrations of the compounds for 24 h at 37 °C. Then, the cells were washed three times with PBS, incubated with Fluo-3AM, and observed under an ImageXpress Micro XLS system (MD company, San Jose, CA, USA). The fluorescence intensity was analyzed under a high content analysis system.

[11] = test system: SGC-7901 cells; test: Intracellular MDA assay; format: cell-based, human; conditions: SGC-7901, IC50 concentrations, 24 h
Description: as §3

[12] = test system: SGC-7901 cells; test: Intracellular ROS levels (DCFH-DA); format: cell-based, human; conditions: SGC-7901, IC50 concentrations, 24 h, versus control
Description: SGC-7901 cells were seeded in 12-well plate at a density of 1.5 × 10^5 cells per well for 24 h. Then, the medium was replaced with medium containing compounds for 24 h. After treatment, the medium was removed and washed three times with PBS, and the cells were stained with 20 μM DCFH-DA for 30 min in the dark. Finally, the cells were imaged under ImageXpress Mico XLS system (MD company, San Jose, CA, USA).

[13] = test system: CRT, HSP70 and HMGB1; test: Immunostaining of CRT, HSP70 and HMGB1 (immunogenic cell death); format: cell-based, human; conditions: SGC-7901, IC50 concentrations, 24 h
Description: The SGC-7901 cells were cultured in 12-well plates and treated with IC50 concentrations of 3b and 3c for 24 h. The cells were fixed with 75% alcohol, and then washed and incubated with immunostaining blocker for 1 h. The primary antibody CRT Antibody, HSP70 Antibody and HMGB1 antibody were incubated for 12 h and then the cells were washed three times with PBS. Next, the secondary antibody FITC-labeled Goat Anti-Rabbit IgG was incubated in darkness for 1 h. The cells were washed three times with PBS. Finally, the nuclei were stained with Hoechst and photographed under Micro XLS System (MD company, San Jose, CA, USA).

[14] = test system: SGC-7901 cells; test: Cell cycle arrest by flow cytometry (PI); format: cell-based, human; conditions: SGC-7901, IC50 concentrations, 24 h
Description: The cell cycle arrest was carried out using a method described in the literature. Briefly, SGC-7901 cells were treated with IC50 concentrations of compounds for 24 h. Then, the cells were harvested and fixed overnight in 70% ethanol at 4 °C. Next, the permeabilized cells were stained with PI/RNase buffer and the DNA content was determined on a flow cytometer. The results were analyzed by ModFit LT 4.0 (Verity Software House, Topsham, ME, USA).

[15] = test system: P38 MAPK; test: Western blot of P38 MAPK expression; format: cell-based, human; conditions: SGC-7901, IC50 concentrations, 24 h
Description: SGC-7901 cells were seeded in six-well plates for 24 h and incubated with IC50 concentrations of the compounds in the presence of 10% fetal bovine serum (FBS). The cells were then harvested in lysis buffer. After sonication, the samples were centrifuged for 20 min at 13,000× g. The protein concentration of the supernatant was determined by BCA (bicinchoninic acid) assay. Sodium dodecyl sulfate–polyacrylamide gel electrophoresis was carried out with loading equal amounts of proteins per lane. The gels were then transferred to poly (vinylidene difluoride) membranes (Millipore, Billerica, MA, USA) and blocked with 5% nonfat milk in TBST (20 mM Tris-HCl, 150 mM NaCl, 0.05% Tween 20, pH 8.0, Tween: polyoxyethylene monolaurate sorbaitan) buffer for 3 h. The polyvinylidene difluoride membranes were washed four times with TBST (4 × 10 min) and incubated with primary antibody solution at 4 °C overnight. They were then washed four times with TBST for a total of 30 min. The secondary antibodies were then conjugated with horseradish peroxidase (1:5000 dilution) for 70 min at room temperature and washed four times with TBST. The blots were visualized with the Amersham ECL ([…]) and western blotting detection reagents according to the manufacturer’s instructions.

[16] = pKa by potentiometric titration; format: physicochemical; conditions: aqueous dimethyl sulfoxide (30% DMSO), 30% dimethyl sulfoxide, 0.15 M KCl
Description: The pKa values of the compounds were determined by potentiometric titration using a pH meter (Basic pH Meter PB-10, Sartorius) calibrated with standard buffers of pH 4.01, 6.86 and 9.18 [26]. The compounds were dissolved in aqueous dimethyl sulfoxide (30% dimethyl sulfoxide) at constant ionic strength (0.15 M KCl). The solution was pre-acidified to approximately pH = 2 with 0.24 M HCl, and titrated until pH = 12 with 0.06 M KOH.

[17] = test system: calf thymus DNA (CT-DNA); test: Viscosity experiments with CT-DNA; format: binding; conditions: 25 (±0.1) °C, [DNA] = 200 μM, compounds 0 to 90 μM
Description: An ubberhold viscometer was used to measure the viscosity of the CT-DNA solution in the absence and presence of compounds, and the temperature was maintained at 25 ± 0.1 °C. The concentration of CT-DNA was 200 μM, and the concentrations of the compounds varied from 0 to 90 μM. The flow times were recorded with a digital stopwatch; each sample was measured three times to get the average time.

[18] = test system: SGC-7901 cells; test: Mitochondrial membrane potential assay (JC-1); format: cell-based, human; conditions: SGC-7901, IC50 concentrations, 24 h; control 5.85
Description: SGC-7901 cells were treated with IC50 concentrations of the compounds in 12-well plates for 24 h and were washed three times with cold PBS. Then, the cells were stained with 1 μg/mL JC-1 for 30 min at 37 °C in the dark. After that, the cells were washed twice with ice-cold PBS to remove residual stain and imaged under the ImageXpress Micro XLS system (MD company, San Jose, CA, USA).

[19] = test system: calf thymus DNA (CT-DNA); test: EB-competitive binding, luminescence titration; conditions: EB-CT-DNA (DNA:EB = 1.25:1), compounds 6.62–50 μM
Description: We used ethidium bromide (EB)-competing binding experiments to investigate the binding mode between the compounds and CT-DNA. It is well known that EB combines DNA molecules through a classic intercalative mode. Maintaining the DNA-EB solution concentration (DNA:EB = 1.25:1) and varying the concentrations of compounds (6.62–50 μM), the spectra were recorded after 5 min. The Stern-Volmer constants (Ksv) were calculated using the following Equation (3):F0/F = 1 + Ksv [Q](3) where F0 and F were the fluorescence intensities of the EB-CT DNA solution at 550–700 nm in the absence and presence of the compounds, respectively. [Q] was the concentration of compounds. In plots of F0/F versus [Q], Ksv was given by the ratio of the slope to the intercept.

[20] = test system: SGC-7901 cells; test: ATP measurement; format: cell-based, human; conditions: SGC-7901, IC50 concentrations, 24 h
Description: The SGC-7901 cells were cultured in six-well plates and treated with IC50 concentrations of 3b and 3c for 24 h. The cells were lysed for 10 min and centrifuged to obtain the supernatant. The prepared ATP detection working solution was added into the supernatant, 5 min late, the RLU value was measured.

With `O=C(O)CCc1cccc2oc3ccc4ccccc4c3c(=O)c12` [Compound 3a, 3-(12-oxo-12H-benzo[a]xanthen-11-yl)propanoic acid] the IC50 [1] was > 100 µM, the IC50 [2] was > 100 µM and the IC50 [3] was > 100 µM. For the same compound, the IC50 [4] was > 100 µM and the IC50 [5] was > 100 µM.

In the case of `COC(=O)c1ccc2c(ccc3oc4cccc(CCC(=O)O)c4c(=O)c32)c1` [Compound 3b, 3-(3-methoxycarbonyl-12-oxo-12H-benzo[a]xanthen-11-yl)propanoic acid], the cellular uptake [6] is reported as “enter the cytoplasm and accumulate in the nuclei”, the IC50 [1] is reported as 68 ± 9.28 µM and the logP [7] is reported as 0.822. The GSH concentration [8] was 69.96 µM, the “stability in PBS” value ([9]; UV-Vis spectra at 0 and 48 h) was “stable in PBS” and the “solubility in PBS” value ([9]; precipitate observed at 48 h) was “low solubility in PBS”. The IC50 [2] was 51.5 ± 13.7 µM, the “increase of Flu-3-AM fluorescence intensity (intracellular Ca2+)” value [10] was 1.67 times and the MDA [11] was 5.58 nmol/mg. For the same compound, the IC50 [3] was 45.6 ± 6.5 µM, the “increase of DCF fluorescence intensity” value [12] was “about 60.5%” and the “expression of CRT, HSP70 and HMGB1” value [13] was “increased”. The “Percentage in the cell G0/G1” value [14] was 74.6%, the “Percentage in the cell G2/M” value [14] was 17.4% and the “increase in the cell at G0/G1 phase” value ([14]; versus control) was 17.7%. For the same compound, the IC50 [4] was > 100 µM, the “P38 MAPK expression” value [15] was “significantly upregulated” and the IC50 [5] was 38.1 ± 0.41 µM. The pKa [16] was 7.48, the “relative viscosity of CT-DNA with increasing compound concentration” value [17] was “increased” and the “ratio of red/green fluorescence (R), JC-1” value [18] was 3.01. The “Stern-Volmer constant (Ksv)” value [19] was 2.20 (±0.12) × 10^3 M^−1 and the ATP concentration [20] was 3.30 µM.

— PMC8949258, “Synthesis, Characterization and Anticancer Efficacy Evaluation of Benzoxanthone Compounds toward Gastric Cancer SGC-7901” (Molecules, 2022)
